Experimental data taken from US20250214925A1, “CATIONIC LIPID, LIPOSOME, LIPID NANOPARTICLE, AND USE” (CARCELL BIOPHARMA LTD., priority 2022, published 2025).

Experiments:
mice = experiment: In vivo delivery of Ffluc mRNA LNP in mice, intravenous administration, luminescence relative to MC3; parameters: species or system mice (female Balb/C); conditions: fold change in luminescence intensity relative to MC3; 0.06 mg/kg tail vein; 6 h after injection
Method: The prepared encapsulation solution was applied to mice in the following manner, and its delivery efficiency in mice was tested. Among them, DLin-MC3-DMA (MC3) was a cationic liposome for delivering small nucleic acids that was approved by the FDA for marketing in 2018, which has high nucleic acid drug delivery efficiency and biosafety, and was usually used as the industry gold standard in the screening process of cationic lipids. In the evaluation of mice experiments, the ratio of nucleic acid delivery efficiency normalized to MC3 was greater than 0.1, which was considered to be a cationic lipid with high delivery efficiency.
1. The LNP solution was diluted with 50 mM TBS, pH 7.4 to a concentration of 0.1 mg/mL mRNA.
2. The mice involved in this study were female Balb/C, weighing 18-22 g, 6-8 weeks old, with 5 mice in each group.
3. The dosing solution was kept at 4° C. prior to injection.
4. Each mice received 0.06 mg/kg via tail vein injection.
5. The mice were injected intraperitoneally with 200 μL of 1.5 mg/mL D-luciferin solution 6 h after injection.
6. The in vivo luminescence images of the mice were obtained using the IVIS system (Aniview).
7. The luminescence intensity of each mice was measured using Aniview software.
8. MC3 lipid nanoparticles were used as a positive control. The in vivo efficacy of each cationic lipid tested was recorded as the fold change in luminescence intensity relative to MC3 (ratio normalized to MC3).

[1] = LNP size and PDI by dynamic laser light scattering; format: physicochemical; conditions: LNP: 50% cationic lipid, 38.5% cholesterol, 10% DSPC, 1.5% DMG-PEG2000; Ffluc mRNA
Method: (§1) 1. The cationic lipid (50 mg/mL) prepared in the above examples of the present disclosure, cholesterol (20 mg/mL), DSPC (20 mg/mL) and DMG-PEG2000 (20 mg/mL) were dissolved in ethanol, and the solution was placed in a 55° C. metal thermostatic bath as needed to aid dissolution, to obtain a lipid mixture with the following molar composition: 1.5% DMG-PEG2000, 50% cationic lipid, 38.5% cholesterol, and 10% DSPC.
(§2) 2. The mRNA encoding Ffluc was diluted with 10 mM pH 4.0 citrate buffer to prepare a 0.2 mg/mL mRNA solution.
(§3) 3. The lipid mixture prepared in step 1 was mixed with the mRNA solution prepared in step 2 using a syringe pump with a tee at a total flow rate of 40 mL/min.
(§4) 4. The LNP mixture was collected after the three-way mixing and placed in a dialysis bag with a molecular weight cut-off of 100 KDa.
(§5) 5. The LNP mixture was dialyzed overnight against 50 mM Tris-buffered saline, pH 7.4.
(§6) 6. Sieving, and subsequent measurement of the sieved LNP to measure the PDI of the LNP by dynamic laser light scattering; to measure the mRNA encapsulation efficiency and concentration by Ribogreen assay; and to measure the pKa by TNS-α assay.

[2] = mRNA encapsulation efficiency of LNP by Ribogreen assay; format: physicochemical; conditions: LNP: 50% cationic lipid, 38.5% cholesterol, 10% DSPC, 1.5% DMG-PEG2000; Ffluc mRNA
Method: as §1, §2, §3, §4, §5, §6

PDI [1]	Size (nm) [1] [nm]	Encapsulation Rate [2] [%]	Compound	In Vivo Efficacy Normalized To Mc3 In Mice (Intravenous Injection) (mice)
0.1816	90.31	97	CCCCC/C=C\C/C=C\CCCCCCCC(=O)OCC(COC(=O)/C=C(\CCCCCC)CCCCCCCC)COC(=O)OCCC1CCN(C)CC1 (stereo not shown) [CPL-292, 3-(((E)-3-hexylundec-2-enoyl)oxy)-2-((((2-(1-methylpiperidin-4-yl)ethoxy)carbonyl)oxy)methyl)propyl(9Z,12Z)-octadeca-9,12-dienoate]	0.27
0.1084	83.4	99	CCCCC/C=C\C/C=C\CCCCCCCC(=O)OCC(COC(=O)/C=C(\CCCC)CCCCCCC)COC(=O)OCC1CCN(C)C1 (stereo not shown) [CPL-338, 3-(((E)-3-butyldec-2-enoyl)oxy)-2-(((((1-methylpyrrolidin-3-yl)methoxy)carbonyl)oxy)methyl)propyl(9Z,12Z)-octadeca-9,12-dienoate]	0.52
0.1069	95.77	97	CCCCC/C=C\C/C=C\CCCCCCCC(=O)OCC(COC(=O)/C=C(/CCCC)CCCCCC)COC(=O)OCCCN1CCN(C)CC1 (stereo not shown) [CPL-394, 3-(((Z)-3-butylnon-2-enoyl)oxy)-2-((((3-(4-methylpiperazin-1-y)propoxy)carbonyl)oxy)methyl)propyl(9Z,12Z)-octadeca-9,12-dienoate]	0.13
0.1248	88.31	94	CCCCC/C=C\C/C=C\CCCCCCCC(=O)OCC(COC(=O)/C=C(\CCCCC)CCCCCCCC)COC(=O)OCC1CCCN(C)C1 (stereo not shown) [CPL-377, 3-((((1-methylpiperidin-3-yl)methoxy)carbonyl)oxy)-2-((((E)-3-pentylundec-2-enoyl)oxy)methyl)propyl(9Z,12Z)-octadeca-9,12-dienoate]	0.45
0.0594	62.9	96	CCCCC/C=C\C/C=C\CCCCCCCC(=O)OCC(COC(=O)C=C(CCCCCCCCC)CCCCCCCCC)COC(=O)OCCCN(CC)CC (stereo not shown) [CPL-001-01, 3-(((3-(diethylamino)propoxy)carbonyl)oxy)-2-(((3-nonyldodec-2-enoyl)oxy)methyl)propyl(9Z,12Z)-octadeca-9,12-dienoate]	2.00
0.102	99.55	98	CCCCC/C=C\C/C=C\CCCCCCCC(=O)OCC(COC(=O)/C=C(\CCCCC)CCCCCCCC)COC(=O)OCCCN(C)C (stereo not shown) [CPL-223, 3-(((3-(dimethylamino)propoxy)carbonyl)oxy)-2-((((E)-3-pentylundec-2-enoyl)oxy)methyl)propyl(9Z,12Z)-octadeca-9,12-dienoate]	0.41
0.1961	99.42	95	CCCCC/C=C\C/C=C\CCCCCCCC(=O)OCC(COC(=O)/C=C(\CCC)CCCCCC)COC(=O)OCC1CCN(C)C1 (stereo not shown) [CPL-324, 3-((((1-methylpyrrolidin-3-yl)methoxy)carbonyl)oxy)-2-((((E)-3-propylnon-2-enoyl)oxy)methyl)propyl(9Z,12Z)-octadeca-9,12-dienoate]	0.31
0.1162	90.88	94	CCCCC/C=C\C/C=C\CCCCCCCC(=O)OCC(COC(=O)/C=C(\CCCCC)CCCCCCCCCC)COC(=O)OCCCN(C)C (stereo not shown) [CPL-224, 3-(((3-(dimethylamino)propoxy)carbonyl)oxy)-2-((((E)-3-pentyltridec-2-enoyl)oxy)methyl)propyl(9Z,12Z)-octadeca-9,12-dienoate]	0.87
0.2409	110.1	94	CCCCCCCCCC/C(=C/C(=O)OCCCCCN(CCCO)CCCCCOC(=O)/C=C(\CCCCC)CCCCCCCCCC)CCCCC [CPL-048, ((3-hydroxypropyl)azanediyl)bis(pentane-5,1-diyl) (2E,2′E)-bis(3-pentyltridec-2-enoate)]	1.57
0.1898	83.7	95	CCCCCCCC/C(=C/C(=O)OCCCCCCN(CCCO)CCCCCCOC(=O)/C=C(\CCCC)CCCCCCCC)CCCC [CPL-065, ((3-hydroxypropyl)azanediyl)bis(hexane-6,1-diyl) (2E,2′E)-bis(3-butylundec-2-enoate)]	1.62
0.1162	90.76	93	CCCCCCC/C(=C/C(=O)OCCCCCN(CCCO)CCCCCOC(=O)/C=C(\CCCC)CCCCCCC)CCCC [CPL-052, ((3-hydroxypropyl)azanediyl)bis(pentane-5,1-diyl) (2E,2′E)-bis(3-butyldec-2-enoate)]	1.46
0.1733	99.82	97	CCCCC/C=C\C/C=C\CCCCCCCC(=O)OCC(COC(=O)/C=C(\CCCCCC)CCCCCCC)COC(=O)OCC1CCCN(C)C1 (stereo not shown) [CPL-383]	0.80

Compound	PDI [1]	Size (nm) [1] [nm]	Encapsulation Rate [2] [%]	In Vivo Efficacy Normalized To Mc3 In Mice (Intravenous Injection) (mice)
CCCCCC/C(=C/C(=O)OCCCCCCCN(CCCO)CCCCCCCOC(=O)/C=C(\CCCCC)CCCCCC)CCCCC [CPL-090, ((3-hydroxypropyl)azanediyl)bis(heptane-7,1-diyl) (2E,2′E)-bis(3-pentylnon 2-enoate)]	0.1615	85.28	94	2.02
CCCCCC/C(=C/C(=O)OCCCCCCCCN(CCCO)CCCCCCCCOC(=O)/C=C(\CCCCC)CCCCCC)CCCCC [CPL-112, ((3-hydroxypropyl)azanediyl)bis(octane-8,1-diyl)(2E,2′E)-bis(3-pentylnon-2-enoate)]	0.1173	85.04	95	2.14
CCCCC/C=C\C/C=C\CCCCCCCC(=O)OCC(COC(=O)/C=C(/CCCCCCCC)CCCCCCCCCC)COC(=O)OCC1CCN(C)C1 (stereo not shown) [CPL-343, 3-((((1-methylpyrrolidin-3-yl)methoxy)carbonyl)oxy)-2-((((Z)-3-octyltridec-2-enoyl)oxy)methyl)propyl(9Z,12Z)-octadeca-9,12-dienoate]	0.1584	116.3	85	0.44
CCCCC/C=C\C/C=C\CCCCCCCC(=O)OCC(COC(=O)/C=C(\CCCCC)CCCCCC)COC(=O)OCCCN(CC)CC (stereo not shown) [CPL-266, 3-(((3-(diethylamino)propoxy)carbonyl)oxy)-2-((((E)-3-pentylnon-2-enoyl)oxy)methyl)propyl(9Z,12Z)-octadeca-9,12-dienoate]	0.0481	68.11	97	0.72
